Legend:
human AKT2 = human AKT2 (Homo sapiens (Human), UniProt P31751); test: AKT2 kinase activity inhibition (TR-FRET, biotinylated Crosstide substrate); format: biochemical; details: preincubation 120 min at 25° C.; ATP 150 μM; Crosstide 500 nM
Method: (§1) Preparation of AKT1 and AKT2 and measurement of in vitro inhibitory activity of the above-mentioned compounds against AKT1 and AKT2 kinase activity were carried out with reference to the method disclosed in Biochem. J. Vol. 385, pp 399-408 (2005). In the preparation of AKT1 and AKT2, human AKT1 and AKT2 to which a middle T antigen tag was added were expressed in Sf 9 insect cells, and then AKT1 and AKT2 were prepared following affinity purification and activation by PDK1. The prepared AKT1 and AKT2 were stored at −80° C. until the time of measurement of inhibitory activity of the compounds. In the measurement of inhibitory activity of the compounds, AKT1 or AKT2 and each compound of the present invention were preincubated at 25° C. for 120 minutes in a buffer solution for reaction (15 mM Tris-HCl pH 7.5, 0.01% Tween-20, 2 mM DTT). As a substrate, biotinylated Crosstide (bioton-KGSGSGRPRTSSFAEG), MgCl2, and ATP were added to final concentrations of 500 nM, 10 mM, and 150 μM, respectively, and reactions were carried out at 25° C. for 60 minutes. The reactions were stopped by adding EDTA to a final concentration of 80 mM. Then, a detection liquid in which an Eu-labeled anti-phosphorylation Crosstide antibody (PerkinElmer) and SureLight APC-SA (PerkinElmer) were contained at a final concentration of 0.5 nM and […], respectively, was added, and reactions were carried out at room temperature for 2 hours. Finally, the amount of fluorescence at the time of irradiation of excitation light having a wavelength of 337 nm was measured at dual wavelengths of 620 nm and 665 nm by PHERAstar FS (BMG LABTECH). The amount of phosphorylation was determined from the ratio of the fluorescence amounts at the dual wavelengths. The compound concentration at which phosphorylation can be inhibited by 50% was defined as […] (nM), and the results are shown in Table 4 below.

[1] = test system: S6 ribosomal protein (S6RP) Ser240/Ser244 phosphorylation; test: Phosphorylated S6RP (Ser240/Ser244) inhibitory activity in cultured cell A2780 (Meso Scale Discovery assay); format: cell-based; details: A2780 cells, 3 hours treatment; average±standard deviation of three independent runs
Method: (§2) To evaluate the inhibitory activity of the above compounds against AKT activity, AKT Ser 473 phosphorylation and phosphorylation of S6 ribosomal protein (S6RP) (a downstream factor of Akt signal) at Ser240/Ser244, which serve as indices for the activation status of AKT, were measured in extracts of cultured cells which had been treated with the above compounds. For the measurement, assays (manufactured by Meso Scale Discovery) utilizing electrochemiluminescence based on the ELISA principle were used for both AKT Ser473 and S6RP Ser240/Ser244.
(§3) In 10% FBS-containing RPMI1640 medium (Invitrogen), ovarian cancer-derived A2780 cells in the logarithmic growth phase were seeded at 4.5×10^4 cells/150 μL/well into polylysine coated 96-well flat-bottom plates, and cultured for one day in an incubator at 5% CO2, 37° C., and 100% humidity.
(§4) Each compound of the present invention was supplied as a stock solution prepared at a concentration of 10 mM in DMSO. Using this solution, a dilution series was prepared in DMSO solvent at 200-fold of the final concentrations (10, 3, 1, 0.3, 0.1, 0.03, 0.01, 0.003 μM). The day after the cells were seeded, the compound dilution series at a 200-fold concentration was diluted 50-fold in medium for cell culture. To each well of the aforementioned A2780 cell culture plates, 50 μL of the diluted compound dilution series was added. The plates were then placed back in the incubator, and the culture was continued for 3 hours at 5% CO2, 37° C., and 100% humidity.
(§5) Meso Scale Discovery's 96-Well Multi-Spot Phospho-AKT (Ser473) Assay (K151CAA-3) and Phospho (Ser240/244)/Total S6RP Assay (K11139D-2) were used. In advance, a necessary amount of the supplied cell extract buffer was dispensed, and protease inhibitor cocktail and protein phosphatase inhibitor cocktail were added thereto, and kept cold on ice. The culture plates of the cells cultured with the compounds for 3 hours were taken out and the medium was removed. 100 μL of the cell extract buffer kept cold was added per well, followed by extraction by shaking at 300 r.p.m. for 1 hour using a plate shaker while maintaining a temperature of 4° C. Using the obtained extracts at 40 μL/well for the Phospho-AKT (Ser473) Assay and at 15 μL/well for the Phospho(Ser240/244)/Total S6RP Assay, reactions were conducted at 4° C. overnight with shaking at 300 r.p.m. according to the document attached to the kits. The next day, after the wells were washed three times with the supplied wash buffer, 50 μL/well of SULFO-TAG™ sandwich antibody solution was added, and reactions were carried out at room temperature for 1 hour. The wells were washed with the wash buffer three times, and 150 μL of the supplied Read Buffer T was added to each well. The amounts of phosphorylation of AKT and S6RP were measured by a SECTOR Imager 6000 plate reader (manufactured by Meso Scale Discovery) within 30 minutes of the Read Buffer T addition.
(§6) The extraction buffer-only background was subtracted from all of the measurement values, and AKT and S6RP phosphorylation signals in the control cell extract treated with only DMSO were defined as 100%. The compound concentrations and the levels of phosphorylated AKT and S6PR (expressed as a percentage relative to the control) in each concentration were plotted, and IC50 concentration (nM) that achieves 50% inhibition of the control was determined.

[2] = test system: AKT Ser473 phosphorylation; test: Phosphorylated AKT (Ser473) inhibitory activity in cultured cell A2780 (Meso Scale Discovery assay); format: cell-based; details: A2780 cells, 3 hours treatment; average±standard deviation of three independent runs
Method: as §2, §3, §4, §5, §6

human AKT1 = human AKT1 (Homo sapiens (Human), UniProt P31749); test: AKT1 kinase activity inhibition (TR-FRET, biotinylated Crosstide substrate); format: biochemical; details: preincubation 120 min at 25° C.; ATP 150 μM; Crosstide 500 nM
Chain of human AKT1 (P31749 whole entry): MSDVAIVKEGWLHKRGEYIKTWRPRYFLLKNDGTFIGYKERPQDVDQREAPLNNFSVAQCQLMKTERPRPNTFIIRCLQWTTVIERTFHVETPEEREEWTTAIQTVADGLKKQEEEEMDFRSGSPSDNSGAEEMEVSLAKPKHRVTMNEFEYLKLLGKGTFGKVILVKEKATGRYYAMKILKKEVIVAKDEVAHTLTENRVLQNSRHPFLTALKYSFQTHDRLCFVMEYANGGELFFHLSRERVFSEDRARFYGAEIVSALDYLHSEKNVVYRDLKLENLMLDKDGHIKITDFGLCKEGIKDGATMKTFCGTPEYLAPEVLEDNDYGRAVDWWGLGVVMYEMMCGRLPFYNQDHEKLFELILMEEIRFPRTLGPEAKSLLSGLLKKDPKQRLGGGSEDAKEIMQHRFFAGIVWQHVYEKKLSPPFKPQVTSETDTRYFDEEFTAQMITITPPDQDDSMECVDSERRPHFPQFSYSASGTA
Method: as §1

Chain of human AKT2 (P31751 whole entry): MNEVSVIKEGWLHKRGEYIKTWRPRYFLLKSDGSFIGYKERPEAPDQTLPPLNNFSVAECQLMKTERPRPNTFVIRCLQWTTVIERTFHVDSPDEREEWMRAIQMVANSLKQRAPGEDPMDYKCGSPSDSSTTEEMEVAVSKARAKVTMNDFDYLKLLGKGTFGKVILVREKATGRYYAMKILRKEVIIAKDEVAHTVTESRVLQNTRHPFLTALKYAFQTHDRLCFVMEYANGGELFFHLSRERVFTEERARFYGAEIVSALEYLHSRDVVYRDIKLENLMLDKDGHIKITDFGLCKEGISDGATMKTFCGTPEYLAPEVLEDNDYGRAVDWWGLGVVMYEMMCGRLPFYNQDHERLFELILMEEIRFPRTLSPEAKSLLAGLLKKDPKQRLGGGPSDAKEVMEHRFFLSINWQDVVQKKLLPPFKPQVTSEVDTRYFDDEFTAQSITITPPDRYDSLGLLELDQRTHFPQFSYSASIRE

## N[C@]1(c2ccc(-c3nc4n(c3-c3ccncc3)COc3cccc(F)c3-4)cc2)C[C@](O)(C2CC2)C1 [Example 5, trans-3-amino-1-cyclopropyl-3-(4-(10-fluoro-3-(pyridin-4-yl)-5H-benzo[e]imidazo[1,2-c][1,3]oxazin-2-yl)phenyl)cyclobutanol]
Human AKT2
  IC50: 0.91 nM
[1]
  IC50: 232 ± 53 nM
[2]
  IC50: 85 ± 24 nM
Human AKT1
  IC50: 22 nM

## N[C@]1(c2ccc(-c3nc4n(c3-c3ccccc3)COc3ccccc3-4)cc2)C[C@](O)(C2CC2)C1 [Example 11, trans-3-amino-1-cyclopropyl-3-(4-(3-phenyl-5H-benzo[e]imidazo[1,2-c][1,3]oxazin-2-yl)phenyl)cyclobutanol]
Human AKT2
  IC50: 1 nM
[1]
  IC50: 83 ± 27 nM
[2]
  IC50: 63 ± 15 nM
Human AKT1
  IC50: 3.9 nM

## COc1cccc2c1-c1nc(-c3ccc([C@]4(N)C[C@@](O)(C5CC5)C4)cc3)c(-c3ccccc3)n1CO2 [Example 16, trans-3-amino-1-cyclopropyl-3-(4-(10-methoxy-3-phenyl-5H-benzo[e]imidazo[1,2-c][1,3]oxazin-2-yl)phenyl)cyclobutanol]
Human AKT2
  IC50: 0.35 nM
[1]
  IC50: 38 ± 7 nM
[2]
  IC50: 31 ± 5 nM
Human AKT1
  IC50: 4.8 nM

## COc1ccc2c(c1)-c1nc(-c3ccc([C@]4(N)C[C@@](O)(C5CC5)C4)cc3)c(-c3ccccc3)n1CO2 [Example 17, trans-3-amino-1-cyclopropyl-3-(4-(9-methoxy-3-phenyl-5H-benzo[e]imidazo[1,2-c][1,3]oxazin-2-yl)phenyl)cyclobutanol]
Human AKT2
  IC50: 5.1 nM
[1]
  IC50: 37 ± 7 nM
[2]
  IC50: 33 ± 6 nM
Human AKT1
  IC50: 1.8 nM

## COc1ccc2c(c1)OCn1c-2nc(-c2ccc([C@]3(N)C[C@@](O)(C4CC4)C3)cc2)c1-c1ccccc1 [Example 18, trans-3-amino-1-cyclopropyl-3-(4-(8-methoxy-3-phenyl-5H-benzo[e]imidazo[1,2-c][1,3]oxazin-2-yl)phenyl)cyclobutanol]
Human AKT2
  IC50: 0.6 nM
[1]
  IC50: 58 ± 10 nM
[2]
  IC50: 52 ± 6 nM
Human AKT1
  IC50: 3.7 nM

## N[C@]1(c2ccc(-c3nc4n(c3-c3ccccc3)COc3cccnc3-4)cc2)C[C@](O)(C2CC2)C1 [Example 27, trans-3-amino-1-cyclopropyl-3-(4-(3-phenyl-5H-imidazo[1,2-c]pyrido[2,3-e][1,3]oxazin-2-yl)phenyl)cyclobutanol]
Human AKT2
  IC50: 1.6 nM
[1]
  IC50: 100 ± 17 nM
[2]
  IC50: 66 ± 10 nM
Human AKT1
  IC50: 11 nM

## C[C@]1(O)C[C@@](N)(c2ccc(-c3nc4n(c3-c3ccccc3)COc3cccnc3-4)cc2)C1 [Example 28, trans-3-amino-1-methyl-3-(4-(3-phenyl-5H-imidazo[1,2-c]pyrido[2,3-e][1,3]oxazin-2-yl)phenyl)cyclobutanol]
Human AKT2
  IC50: 2 nM
[1]
  IC50: 131 ± 28 nM
[2]
  IC50: 81 ± 9 nM
Human AKT1
  IC50: 11 nM

## CC[C@]1(O)C[C@@](N)(c2ccc(-c3nc4n(c3-c3ccccc3)COc3cccnc3-4)cc2)C1 [Example 30, trans-3-amino-1-ethyl-3-(4-(3-phenyl-5H-imidazo[1,2-c]pyrido[2,3-e][1,3]oxazin-2-yl)phenyl)cyclobutanol]
Human AKT2
  IC50: 4.6 nM
[1]
  IC50: 174 ± 47 nM
[2]
  IC50: 104 ± 27 nM
Human AKT1
  IC50: 33 nM

## N[C@]1(c2ccc(-c3nc4n(c3-c3ccccc3)COc3ccncc3-4)cc2)C[C@](O)(C2CC2)C1 [Example 31, trans-3-amino-1-cyclopropyl-3-(4-(3-phenyl-5H-imidazo[1,2-c]pyrido[3,4-e][1,3]oxazin-2-yl)phenyl)cyclobutanol]
Human AKT2
  IC50: 0.78 nM
[1]
  IC50: 51 ± 7 nM
[2]
  IC50: 30 ± 5 nM
Human AKT1
  IC50: 4.2 nM

## CC1(O)CC(N)(c2ccc(-c3nc4n(c3-c3ccccc3)COc3ccncc3-4)cc2)C1 (stereo not drawn) [Example 32, trans-3-amino-1-methyl-3-(4-(3-phenyl-5H-imidazo[1,2-c]pyrido[3,4-e][1,3]oxazin-2-yl)phenyl)cyclobutanol]
Human AKT2
  IC50: 1.1 nM
[1]
  IC50: 62 ± 23 nM
[2]
  IC50: 40 ± 3 nM
Human AKT1
  IC50: 6.6 nM

## N[C@]1(c2ccc(-c3nc4n(c3-c3ccccc3)COc3cnccc3-4)cc2)C[C@](O)(C2CC2)C1 [Example 35, trans-3-amino-1-cyclopropyl-3-(4-(3-phenyl-5H-imidazo[1,2-c]pyrido[4,3-e][1,3]oxazin-2-yl)phenyl)cyclobutanol]
Human AKT2
  IC50: 0.48 nM
[1]
  IC50: 33 ± 8 nM
[2]
  IC50: 24 ± 3 nM
Human AKT1
  IC50: 1.6 nM

## C[C@]1(O)C[C@@](N)(c2ccc(-c3nc4n(c3-c3ccccc3)COc3cnccc3-4)cc2)C1 [Example 36, trans-3-amino-1-methyl-3-(4-(3-phenyl-5H-imidazo[1,2-c]pyrido[4,3-e][1,3]oxazin-2-yl)phenyl)cyclobutanol]
Human AKT2
  IC50: 0.74 nM
[1]
  IC50: 36 ± 3 nM
[2]
  IC50: 32 ± 6 nM
Human AKT1
  IC50: 2 nM

## N[C@]1(c2ccc(-c3nc4n(c3-c3ccccc3)COc3ncccc3-4)cc2)C[C@](O)(C2CC2)C1 [Example 38, trans-3-amino-1-cyclopropyl-3-(4-(3-phenyl-5H-imidazo[1,2-c]pyrido[3,2-e][1,3]oxazin-2-yl)phenyl)cyclobutanol]
Human AKT2
  IC50: 0.91 nM
[1]
  IC50: 34 ± 6 nM
[2]
  IC50: 23 ± 4 nM
Human AKT1
  IC50: 1.4 nM

## NC1(c2ccc(-c3nc4n(c3-c3ccccc3)COc3nccnc3-4)cc2)CC(O)(C2CC2)C1 (stereo not drawn) [Example 41, trans-3-amino-1-cyclopropyl-3-(4-(3-phenyl-5H-imidazo[1,2-c]pyrazino[2,3-e][1,3]oxazin-2-yl)phenyl)cyclobutanol]
Human AKT2
  IC50: 3.3 nM
[1]
  IC50: 100 ± 34 nM
[2]
  IC50: 70 ± 16 nM
Human AKT1
  IC50: 5.4 nM

## C[C@]1(O)C[C@@](N)(c2ccc(-c3nc4n(c3-c3ccccc3)COc3ccc(CO)cc3-4)cc2)C1 [Example 44, trans-3-amino-3-(4-(9-(hydroxymethyl)-3-phenyl-5H-benzo[e]imidazo[1,2-c][1,3]oxazin-2-yl)phenyl)-1-methylcyclobutanol]
Human AKT2
  IC50: 0.55 nM
[1]
  IC50: 46 ± 17 nM
[2]
  IC50: 33 ± 7 nM
Human AKT1
  IC50: 2.2 nM

## C[C@]1(O)C[C@@](N)(c2ccc(-c3nc4n(c3-c3ccccc3)COc3ccc(C#N)cc3-4)cc2)C1 [Example 46, 2-(4-(trans-1-amino-3-hydroxy-3-methylcyclobutyl)phenyl)-3-phenyl-5H-benzo[e]imidazo[1,2-c][1,3]oxazine-9-carbonitrile]
Human AKT2
  IC50: 0.97 nM
[1]
  IC50: 53 ± 6 nM
[2]
  IC50: 32 ± 5 nM
Human AKT1
  IC50: 4.4 nM
